Reference: patent US12274264B2, “Piperonylic acid derivative and application thereof” (SHENYANG SINOCHEM AGROCHEMICALS R&D CO., LTD., priority 2019, dated 2025)
Where two headings read alike, the source gives them in different places.

What was measured:
Assay type in all cases: in vivo
[1] = test system: western flower thrips nymphs; test: Determination of activity against western flower thrips nymphs (sprayed kidney bean leaves, mortality after 72 hours); settings: for mortality at 10 µg/mL / mortality at 100 µg/mL / mortality at 600 µg/mL: Frankliniella occidentalis; for mortality at 10 µg/mL / mortality at 100 µg/mL: read-out: Mortality (%) against Western Flower Thrips Nymphs; for mortality at 600 µg/mL: 600 mg/L, read-out: mortality rates against western flower thrips nymphs
Procedure: (§1) According to the solubility of test compounds, the compounds are dissolved with acetone or dimethyl sulfoxide, and then diluted with 0.1% Tween 80 solution to form a required concentration of 50 ml test liquid. The content of the acetone or the dimethyl sulfoxide in the total solution is not more than 10%.
Fresh kidney bean leaves cultured in the glasshouse were selected and uniformly sprayed with 1 ml of the test liquid by using a handheld Airbrush. The leaves were dried naturally and placed in a test tube. Fifteen tidy and healthy western flower thrips nymphs were put into the leaves. Three replicates were set for each treatment. The water treatment was set as control check. After the treatment, the treated tube were placed in a chamber of 24° C., 60%-70% relative humidity and day light. After 72 hours, the number of surviving insects was investigated, and the mortality was calculated.

[2] = test system: Tetranychus cinnabarinus adults; test: Determination of acaricidal activity (spray on bean plant leaves with adult spider mites, mortality after 72 hours); settings: after 72 hours, read-out: Mortality (%) against Tetranychus Cinnabarinus Adult; for mortality at 10 µg/mL: 10 mg/L; for mortality at 100 µg/mL: 100 mg/L; for mortality at 600 µg/mL: 600 mg/L
Procedure: as §1
The adult spider mites were put into two true leaves of bean plants. After the number of mites was investigated, the solution of certain concentrations of test compounds was sprayed by using a handheld Airbrush. Three replicates were set for each treatment. Then the leaves were maintained in a standard observation room. After 72 hours, the number of surviving mites was investigated, and the mortality rate was calculated. Compounds I-41, KC3, KC4 and MC were selected for parallel determination of activity against Tetranychus cinnabarinus adults.

[3] = test system: armyworm; test: Determination of activity against armyworm (corn leaf dip, mortality after 72 hours); settings: foliar, 10 mg/L, third instar, read-out: mortality rates against armyworm
Procedure: as §1
The middle leaves of fresh corns were cut into small sections of 3 cm, and dipped into a solution of the required concentration of test compounds for 10 seconds. After dried in shade, the middle leaves were placed in a 9 cm diameter petri dish provided with filter paper. Fourteen regular healthy test insects (third instar) were put into the leaves. Four replicates were set for each treatment. The pure water treatment was set as control check. The treated discs were placed in a chamber of 24° C., 60%-70% relative humidity and day light. After 72 hours, the number of surviving insects was investigated, and the mortality rate was calculated.

[4] = test system: diamondback moth; test: Determination of activity against diamondback moth (cabbage leaf disc dip, mortality after 72 hours); settings: Plutella xylostella, foliar, 10 mg/L, second instar, read-out: mortality rates against diamondback moth
Procedure: as §1
The leaves of cabbage grown in greenhouse were selected, removed the surface waxy layers, punched into circular leaf discs with a diameter of 2 cm by using a puncher, and dipped into a solution of the required concentration of test compounds for 10 seconds. After dried in shade, the circular leaf discs were placed in a 9 cm diameter petri dish provided with filter paper. Ten regular healthy test insects (second instar) were put into the leaf discs. Four replicates were set for each treatment. The pure water treatment was set as control check. The treated discs were placed in a chamber of 24° C., 60%-70% relative humidity and day light. After 72 hours, the number of surviving insects was investigated, and the mortality rate was calculated.

[5] = test system: Tribolium confusum adults; test: Determination of Tribolium confusum adults (treated feeding bran, 72 h); settings: for mortality at 600 µg/mL: 600 mg/L, read-out: mortality rates against Tribolium confusum adults; for mortality at 5 µg/mL / mortality at 20 µg/mL: read-out: Mortality (%) against Tribolium Confusum Adults
Procedure: as §1
The test liquid was prepared in the order from low dose to high dose according to the test design. Then, the liquid of different concentrations was added to feeding bran and uniformly stirred, and dried in the shade. Then, the resulting feeding bran was collected in a paper cup. Fifty Tribolium confusum adults with consistent size were put in the paper cup. Three replicates were set for each treatment. Control check was set. The treated test materials were put in an observation room under controlled conditions. After 72 h, the number of dead and surviving adults was investigated.

Row | Compound | mortality at 10 µg/mL [3] | mortality at 10 µg/mL [4] | mortality at 600 µg/mL ([1]; after 72 hours) | mortality at 600 µg/mL ([5]; after 72 h) | also measured
1 | CN(C(=O)c1ccccc1)c1cccc(C(=O)Nc2c(Br)cc(C(F)(C(F)(F)F)C(F)(F)F)cc2OC(F)F)c1F [MC] | – | – | – | – | mortality at 10 µg/mL ([1]; 10 mg/L, after 72 hours): 72%; mortality at 100 µg/mL ([1]; 100 mg/L, after 72 hours): 76%; mortality at 10 µg/mL [2]: 0%; mortality at 100 µg/mL [2]: 0%; mortality at 600 µg/mL [2]: 0%
2 | O=C(Nc1cccc(C(=O)Nc2c(Br)cc(C(F)(C(F)(F)F)C(F)(F)F)cc2Br)c1F)c1ccc2c(c1)OC(F)(F)O2 [KC1, reference compound] | – | – | – | – | mortality at 10 µg/mL ([1]; 10 mg/L, after 72 hours): 15%; mortality at 100 µg/mL ([1]; 100 mg/L, after 72 hours): 85%
3 | CN(C(=O)c1ccc2c(c1)OC(F)(F)O2)c1cccc(C(=O)Nc2c(Br)cc(C(F)(C(F)(F)F)C(F)(F)F)cc2OC(F)(F)F)c1F [Compound I-62, N-(2-bromo-4-heptafluoroisopropyl-6-trifluoromethoxyphenyl)-2-fluoro-3-(N-methyl-2,2-difluoro-1,3-benzodioxole-5-carboxamido) benzamide] | > 90% | > 90% | > 90% | > 90% | –
4 | O=C(Nc1cccc(C(=O)Nc2c(OC(F)F)cc(C(F)(C(F)(F)F)C(F)(F)F)cc2C(F)(F)F)c1F)c1ccc2c(c1)OC(F)(F)O2 [Compound I-121] | > 90% | > 90% | > 90% | > 90% | –
5 | CC(C)=CCCC(C)CCN(C(=O)c1ccc2c(c1)OC(F)(F)O2)c1cccc(C(=O)Nc2c(Br)cc(C(F)(C(F)(F)F)C(F)(F)F)cc2OC(F)F)c1F (stereo not shown) [Compound I-57] | > 90% | > 90% | > 90% | > 90% | –
6 | CCN(C(=O)c1ccc2c(c1)OC(F)(F)O2)c1cccc(C(=O)Nc2c(Br)cc(C(F)(C(F)(F)F)C(F)(F)F)cc2OC(F)F)c1F [Compound I-43, N-(2-bromo-6-difluoromethoxy-4-heptafluoroisopropylphenyl)-2-fluoro-3-(N-ethyl-2,2-difluoro-1,3-benzodioxole-5-carboxamido) benzamide] | > 90% | > 90% | > 90% | > 90% | –
7 | CN(C(=O)c1ccc2c(c1)OC(F)(F)O2)c1cccc(C(=O)Nc2c(I)cc(C(F)(C(F)(F)F)C(F)(F)F)cc2OC(F)F)c1F [Compound I-2] | > 90% | > 90% | > 90% | > 90% | –
8 | O=C(Nc1cccc(C(=O)Nc2c(Cl)cc(C(F)(C(F)(F)F)C(F)(F)F)cc2OC(F)F)c1F)c1ccc2c(c1)OC(F)(F)O2 [Compound I-81] | > 90% | > 90% | > 90% | > 90% | –
9 | CN(C(=O)c1ccc2c(c1)OC(F)(F)O2)c1cccc(C(=O)Nc2c(Br)cc(C(F)(C(F)(F)F)C(F)(F)F)cc2OC(F)F)c1F [Compound I-42, N-(2-bromo-6-difluoromethoxy-4-heptafluoroisopropylphenyl)-2-fluoro-3-(N-methyl-2,2-difluoro-1,3-benzodioxole-5-carboxamido) benzamide] | > 90% | > 90% | > 90% | > 90% | mortality at 10 µg/mL ([1]; 10 mg/L, after 72 hours): 91%; mortality at 100 µg/mL ([1]; 100 mg/L, after 72 hours): 100%; mortality at 5 µg/mL ([5]; 5 mg/L, after 72 h): 81%; mortality at 20 µg/mL ([5]; 20 mg/L, after 72 h): 100%
10 | CN(C(=O)c1ccc2c(c1)OC(F)(F)O2)c1cccc(C(=O)Nc2c(Br)cc(C(F)(C(F)(F)F)C(F)(F)F)cc2Br)c1F [KC2, reference compound] | – | – | – | – | mortality at 10 µg/mL ([1]; 10 mg/L, after 72 hours): 59%; mortality at 100 µg/mL ([1]; 100 mg/L, after 72 hours): 90%; mortality at 5 µg/mL ([5]; 5 mg/L, after 72 h): 70%; mortality at 20 µg/mL ([5]; 20 mg/L, after 72 h): 76%
11 | CN(C(=O)c1ccc2c(c1)OC(F)(F)O2)c1cccc(C(=O)Nc2c(Cl)cc(C(F)(C(F)(F)F)C(F)(F)F)cc2OC(F)F)c1F [Compound I-82] | > 90% | > 90% | > 90% | > 90% | –
12 | CN(C(=O)c1ccc2c(c1)OC(F)(F)O2)c1cccc(C(=O)Nc2c(OC(F)F)cc(C(F)(C(F)(F)F)C(F)(F)F)cc2C(F)(F)F)c1F [Compound I-122] | > 90% | > 90% | > 90% | > 90% | –
13 | O=C(Nc1cccc(C(=O)Nc2c(I)cc(C(F)(C(F)(F)F)C(F)(F)F)cc2OC(F)F)c1F)c1ccc2c(c1)OC(F)(F)O2 [Compound I-1] | > 90% | > 90% | > 90% | > 90% | –
14 | CSCCCN(C(=O)c1ccc2c(c1)OC(F)(F)O2)c1cccc(C(=O)Nc2c(Br)cc(C(F)(C(F)(F)F)C(F)(F)F)cc2OC(F)F)c1F [Compound I-60, N-(2-bromo-6-difluoromethoxy-4-heptafluoroisopropylphenyl)-2-fluoro-3-(N-(3-methylthiopropyl)-2,2-difluoro-1,3-benzodioxole-5-carboxamido) benzamide] | > 90% | > 90% | > 90% | > 90% | –
15 | Spinetoram [reference compound] | – | – | – | – | Mortality (%) against Western Flower Thrips Nymphs ([1]; 10 mg/L, after 72 hours): 90%; Mortality (%) against Western Flower Thrips Nymphs ([1]; 100 mg/L, after 72 hours): 100%
16 | CNC(=O)c1cc(C#N)cc(C)c1NC(=O)c1cc(Br)nn1-c1ncccc1Cl [Cyantraniliprole, reference compound] | – | – | – | – | mortality at 10 µg/mL ([1]; 72 h): 25%; mortality at 100 µg/mL ([1]; 72 h): 85%; mortality at 5 µg/mL ([5]; 72 h): 0%; mortality at 20 µg/mL ([5]; 72 h): 5%
17 | O=C(Nc1c(Br)cc(C(F)(C(F)(F)F)C(F)(F)F)cc1OC(F)F)c1cccc(N(CC2CC2)C(=O)c2ccc3c(c2)OC(F)(F)O3)c1F [Compound I-50, N-(2-bromo-6-difluoromethoxy-4-heptafluoroisopropylphenyl)-2-fluoro-3-(N-cyclopropylmethyl-2,2-difluoro-1,3-benzodioxole-5-carboxamido) benzamide] | > 90% | > 90% | > 90% | > 90% | –
18 | O=C(Nc1cccc(C(=O)Nc2c(Br)cc(C(F)(C(F)(F)F)C(F)(F)F)cc2OC(F)F)c1F)c1ccc2c(c1)OC(F)(F)O2 [Compound I-41] | > 90% | > 90% | > 90% | > 90% | mortality at 10 µg/mL ([1]; 10 mg/L, after 72 hours): 90%; mortality at 100 µg/mL ([1]; 100 mg/L, after 72 hours): 95%; mortality at 10 µg/mL [2]: 87%; mortality at 100 µg/mL [2]: 100%; mortality at 600 µg/mL [2]: 100%
19 | CCCCN(C(=O)c1ccc2c(c1)OC(F)(F)O2)c1cccc(C(=O)Nc2c(Br)cc(C(F)(C(F)(F)F)C(F)(F)F)cc2OC(F)F)c1F [Compound I-46, N-(2-bromo-6-difluoromethoxy-4-heptafluoroisopropylphenyl)-2-fluoro-3-(N-n-butyl-2,2-difluoro-1,3-benzodioxole-5-carboxamido) benzamide] | > 90% | > 90% | > 90% | > 90% | –
